Results as given in article PMC3511435, “A Transposon-Derived DNA Polymerase from Entamoeba histolytica Displays Intrinsic Strand Displacement, Processivity and Lesion Bypass” (PLoS ONE, 2012).

Test system: T1, EhDNApolB2
T1 construct: N-terminal 153 residues deleted, 660-aa C-terminal exonuclease and polymerase region, pCOLD I vector (IMAC-purified), E. coli BL21 DE3 Rosetta II, 78 kDa
Test: primer extension on M13mp18 ssDNA, denaturing gel, phosphorimaging
Assay type: biochemical, Entamoeba histolytica
Conditions: 25 µM dNTPs; 1 nM 32P-labelled 17mer primer / circular M13mp18 ssDNA; 20 nM enzyme; 10 min, 37 °C; read-out: reduced by half at a concentration of

`C[C@@]1(CO)[C@H](O)CC[C@@]2(C)[C@H]1CC[C@H]1C[C@@H]3C[C@@]12CC[C@]3(O)CO` [aphidicolin] was tested, and the IC50 was 242 µM.
